Laboratory results taken from article PMC4579554, “Isolation and characterisation of transport-defective substrate-binding mutants of the tetracycline antiporter TetA(B)” (Biochimica et Biophysica Acta, 2015).

Legend:
[1] = target: TetA(B)-Δ394–401-Thrombin-His12 (Escherichia coli, UniProt P02980, DEL195-199/DEL203-207); assay: biochemical
Description: isothermal titration calorimetry on TetA(B)-Δ394–401-Thrombin-His12

[2] = target: T1, TetA(B)-Δ394–401-Thrombin-His12 (Escherichia coli, UniProt P02980, DEL394-401); assay: isothermal titration calorimetry; assay type: binding
T1 construct: C-terminal truncation of residues 394-401, thrombin site and His12 tag (also printed as His10) kept, pET21b, expressed in E. coli C43, purified in LMNG

TetA(B)-His10 = target: T2, TetA(B)-His10 (Escherichia coli, UniProt P02980); assay: isothermal titration calorimetry; assay type: binding
T2 construct: full length (401 residues), C-terminal His10 tag kept, pET21b, expressed in E. coli C43, purified in LMNG
Description: isothermal titration calorimetry on TetA(B)-His10

T2 sequence (P02980 whole entry): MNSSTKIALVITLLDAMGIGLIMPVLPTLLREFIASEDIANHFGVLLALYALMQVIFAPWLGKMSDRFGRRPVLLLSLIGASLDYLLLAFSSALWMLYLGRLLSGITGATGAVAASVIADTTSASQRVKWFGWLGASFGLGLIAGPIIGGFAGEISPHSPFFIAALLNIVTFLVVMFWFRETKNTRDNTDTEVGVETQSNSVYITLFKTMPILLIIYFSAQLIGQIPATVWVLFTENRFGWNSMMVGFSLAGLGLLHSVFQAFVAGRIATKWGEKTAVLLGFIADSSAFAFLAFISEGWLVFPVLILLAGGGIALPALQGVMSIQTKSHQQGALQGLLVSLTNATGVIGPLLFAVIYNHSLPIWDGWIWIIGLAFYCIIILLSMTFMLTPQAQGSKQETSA
T1 sequence (P02980 1-393, stated change not applied): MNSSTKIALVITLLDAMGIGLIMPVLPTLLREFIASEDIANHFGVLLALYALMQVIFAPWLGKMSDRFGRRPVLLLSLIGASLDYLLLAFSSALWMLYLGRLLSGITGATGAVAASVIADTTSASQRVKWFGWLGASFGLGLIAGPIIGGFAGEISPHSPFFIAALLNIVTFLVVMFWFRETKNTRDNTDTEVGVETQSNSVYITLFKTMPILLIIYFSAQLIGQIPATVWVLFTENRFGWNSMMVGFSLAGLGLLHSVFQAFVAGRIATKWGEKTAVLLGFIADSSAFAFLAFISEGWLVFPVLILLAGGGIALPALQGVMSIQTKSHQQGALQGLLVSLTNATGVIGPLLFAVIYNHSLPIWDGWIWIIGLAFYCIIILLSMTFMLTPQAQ
Chain of TetA(B)-Δ394–401-Thrombin-His12 (Escherichia coli, UniProt P02980, DEL195-199/DEL203-207) (P02980 1-393, stated change not applied): as above

In the case of CN(C)[C@@H]1C(=O)C(C(N)=O)=C(O)[C@@]2(O)C(=O)C3=C(O)c4c(O)cccc4[C@@](C)(O)[C@H]3C[C@@H]12 [tetracycline], the Kd [1] is reported as 17.5 ± 0.5 µM, the Kd [2] is reported as 10 ± 2 µM and the Kd (TetA(B)-His10) is reported as 7.3 ± 0.5 µM.
